Data: patent US9630894B2, “Energy efficient method and apparatus for the extraction of biomolecules from dilute aqueous solution” (DYNASEP INC., priority 2012, dated 2017)
“Also recorded” adds a separate entry of the source.

Experiments:
fermentation cultures [1] = assay: DME toxicity study: cell growth by absorption at 600 nm (A600); assay type: cell-based; settings: for A600 values: culture 2-5, DME 27.9 g/L
Procedure: (§1) Toxicity studies were performed to determine the effects of DME on fermentation cultures. Cell growth, viability and solvent production were measured to determine what effect DME has on fermentation cultures. Cell growth was monitored by absorption measurements taken at 600 nm (A600). Viability was measured by counting the colony forming units (CFU) after 24 hours. Solvent production was quantified by HPLC.
(§2) The first round of testing was performed using media that had been sparged with DME gas at 23° C. The amount of DME absorbed into the media was measured by weight gain after sparging. […] Two control cultures were also used for direct comparison of cultures with and without the presence of DME.
A second round of testing was performed at lower DME concentrations. […] Based on the solvent measurements in Table 8 and Table 9 solvent production was also unaffected by DME at 0.7 wt. %. […] This is apparent after examination of the cell density and solvent production for samples 1-5, 2-1, 2-4 and 2-5 in comparison to the control samples 1-B and 2-B.

[2] = cited from earlier work
fermentation cultures [3] = assay: DME toxicity study: solvent production / metabolite analysis by HPLC; assay type: cell-based; settings: for Acetate concentration / Acetoin concentration / Acetone concentration / Butanol concentration / Butyrate concentration / Ethanol concentration / Glucose concentration: 196 hours after inoculation
Procedure: as §1, §2
A second round of testing was performed at lower DME concentrations. The concentration of DME varied from 0.7 wt. % to 2.9 wt. %. Cell densities were measured between 3 and 64 hours after inoculation. […] Based on the solvent measurements in Table 8 and Table 9 solvent production was also unaffected by DME at 0.7 wt. %. […] This is apparent after examination of the cell density and solvent production for samples 1-5, 2-1, 2-4 and 2-5 in comparison to the control samples 1-B and 2-B.

[4] = culture 2-1, weight % DME printed as ?

## COC [DME, dimethyl ether]
Fermentation cultures [1]; 40 hours
  A600 values: 1.18
Fermentation cultures [1]; 64 hours
  A600 values: 1.19
Fermentation cultures [1]; media containing 3 to 4 wt. % DME
  effect on cell growth: substantial reduction in cell growth
[2]
  solubility in water: approximately 20 wt. %
Fermentation cultures [3]; DME at 0.7 wt. %
  effect on solvent production: unaffected; also recorded: no noticeable effect
Fermentation cultures [3]; culture 1-2, 3.48% DME
  Metabolite conc. Final Acetate: 42.01 mM
  Metabolite conc. Final Acetoin: 0.00 mM
  Metabolite conc. Final Acetone: 0.00 mM
  Metabolite conc. Final Butanol: 0.00 mM
  Metabolite conc. Final Butyrate: 101.72 mM
  Metabolite conc. Final Ethanol: 0.00 mM
  Metabolite conc. Final Glucose: 410.70 mM
Fermentation cultures [3]; culture 1-2, DME 18.1 g/L
  Acetate concentration: 45.7 mM
  Acetoin concentration: 1.7 mM
  Acetone concentration: 4.9 mM
  Butanol concentration: 11.7 mM
  Butyrate concentration: 80.8 mM
  Ethanol concentration: 1.9 mM
  Glucose concentration: 381.5 mM
Fermentation cultures [3]; culture 1-3, […] DME
  Metabolite conc. Final Acetate: 47.46 mM
  Metabolite conc. Final Acetoin: 0.00 mM
  Metabolite conc. Final Acetone: 8.33 mM
  Metabolite conc. Final Butanol: 14.84 mM
  Metabolite conc. Final Butyrate: 89.52 mM
  Metabolite conc. Final Ethanol: 0.00 mM
  Metabolite conc. Final Glucose: 380.17 mM
Fermentation cultures [3]; [4]
  Metabolite conc. Final Acetate: 33.46 mM
  Metabolite conc. Final Acetoin: 0.00 mM
  Metabolite conc. Final Acetone: 0.00 mM
  Metabolite conc. Final Butanol: 0.00 mM
  Metabolite conc. Final Butyrate: 94.00 mM
  Metabolite conc. Final Ethanol: 0.00 mM
  Metabolite conc. Final Glucose: 432.02 mM
Fermentation cultures [3]; culture 2-2, 3.92% DME
  Metabolite conc. Final Acetate: 42.17 mM
  Metabolite conc. Final Acetoin: 0.00 mM
  Metabolite conc. Final Acetone: 0.00 mM
  Metabolite conc. Final Butanol: 0.00 mM
  Metabolite conc. Final Butyrate: 91.28 mM
  Metabolite conc. Final Ethanol: 0.00 mM
  Metabolite conc. Final Glucose: 418.43 mM
Fermentation cultures [3]; culture 2-2, DME 6.8 g/L
  Acetone concentration: 10.2 mM
  Butanol concentration: 23.6 mM
  Butyrate concentration: 55.7 mM
  Ethanol concentration: 3.8 mM
Fermentation cultures [3]; culture 2-3, 3.72% DME
  Metabolite conc. Final Acetate: 34.46 mM
  Metabolite conc. Final Acetoin: 0,00 mM
  Metabolite conc. Final Acetone: 0.00 mM
  Metabolite conc. Final Butyrate: 86.91 mM
  Metabolite conc. Final Ethanol: 0.00 mM
Fermentation cultures [3]; culture 2-3, DME 6.6 g/L
  Acetate concentration: 44.6 mM
  Acetoin concentration: 5.6 mM
  Acetone concentration: 9.6 mM
  Butanol concentration: 21.6 mM
  Butyrate concentration: 57.3 mM
  Ethanol concentration: 3.8 mM
  Glucose concentration: 338.3 mM
Fermentation cultures [3]; culture 2-4, DME 29.1 g/L
  Acetate concentration: 42.5 mM
  Acetoin concentration: 0.0 mM
  Acetone concentration: 2.1 mM
  Butanol concentration: 3.7 mM
  Butyrate concentration: 94.8 mM
  Ethanol concentration: 0.0 mM
  Glucose concentration: 403.0 mM
Fermentation cultures [3]; culture 2-5, DME 27.9 g/L
  Acetate concentration: 41.7 mM
  Acetoin concentration: 0.0 mM
  Acetone concentration: 4.3 mM
  Butanol concentration: 7.2 mM
  Butyrate concentration: 94.5 mM
  Ethanol concentration: 0.0 mM
  Glucose concentration: 396.9 mM
Fermentation cultures [3]; cultures containing DME, 3 to 4 wt. %
  effect on solvent production: greatly reduced
